Results: PMC2199305 (Environmental Health Perspectives, 2007)
Where two headings read alike, the source gives them in different places.

Key:
[1] = target: T1, GST-ERR-γ –LBD (human ERR-γ) (Homo sapiens, UniProt P62508); assay: Competitive receptor binding assay using [3H]BPA as tracer; settings: for fold weaker binding affinity for ERR-γ than bisphenol E: ratio of IC50 vs bisphenol E
T1 construct: made in house; host or cells: Escherichia coli BL21α (vector pGEX6P-1)
T1 sequence (P62508 233-457 limits assumed): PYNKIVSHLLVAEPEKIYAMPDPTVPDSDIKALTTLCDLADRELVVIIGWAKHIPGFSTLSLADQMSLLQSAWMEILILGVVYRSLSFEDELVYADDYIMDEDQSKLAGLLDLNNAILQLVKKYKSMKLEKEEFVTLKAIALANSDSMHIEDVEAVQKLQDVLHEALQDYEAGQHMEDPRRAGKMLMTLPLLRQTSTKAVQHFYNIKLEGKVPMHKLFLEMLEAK
Description: ERR-γ –LBD was amplified from a human kidney cDNA library (Clontech Laboratories, Mountain View, CA, USA) by polymerase chain reaction (PCR) using gene-specific primers and cloned into pGEX6P-1 (Amersham Biosciences, Piscataway, NJ, USA). Glutathione S-transferase (GST)–fused receptor protein expressed in Escherichia coli BL21α was purified on an affinity column of glutathione-sepharose 4B (GE Healthcare BioSciences Co., Piscataway, NJ, USA) to obtain GST-ERR-γ –LBD.
The reaction mixtures were incubated for 2 hr at 4°C and free radioligand was removed with 1% DCC by filtration as described above. Radioactivity was determined on a liquid scintillation counter (TopCount NXT; PerkinElmer Life Sciences Tokyo, Japan). […] Each assay was performed in duplicate and repeated at least three times.

[2] = target: T2, human ERR-γ (Homo sapiens, UniProt P62508); settings: HeLa cells; for inhibition of the inverse agonist (deactivation) activity of 4-OHT: added along with 1.0 μM 4-OHT; for effect on constitutive basal activity of ERR-γ: compound alone
T2 sequence (P62508 1-458): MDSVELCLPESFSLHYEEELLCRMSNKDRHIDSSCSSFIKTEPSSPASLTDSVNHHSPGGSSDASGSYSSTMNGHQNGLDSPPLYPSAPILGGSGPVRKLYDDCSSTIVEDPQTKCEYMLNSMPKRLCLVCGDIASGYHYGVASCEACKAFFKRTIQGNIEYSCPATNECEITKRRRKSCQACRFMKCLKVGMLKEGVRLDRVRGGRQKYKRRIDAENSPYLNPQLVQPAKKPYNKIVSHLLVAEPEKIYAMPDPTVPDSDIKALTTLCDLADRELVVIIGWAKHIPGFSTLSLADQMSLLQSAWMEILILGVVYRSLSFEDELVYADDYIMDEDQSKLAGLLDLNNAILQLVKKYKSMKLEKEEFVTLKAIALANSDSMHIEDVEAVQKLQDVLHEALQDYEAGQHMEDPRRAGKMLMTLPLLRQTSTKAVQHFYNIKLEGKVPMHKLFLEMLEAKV
Description: HeLa cells were maintained in Eagle’s MEM (EMEM; Nissui, Tokyo, Japan) in the presence of 10% (vol/vol) fetal bovine serum at 37°C. For luciferase assays, HeLa cells were seeded at 5 × 10^5 cells/6-cm dish for 24 hr and then transfected with 4 μg of reporter gene (pGL3/3 × ERRE) and 3 μg of ERR-γ expression plasmids (pcDNA3/ERR-γ ) by Lipofectamine Plus reagent (Invitrogen Japan, Tokyo, Japan) according to the manufacturer’s protocol. Approximately 24 hr after transfection, cells were harvested and plated into 96-well plates at 5 × 10^4 cells/well. The cells were then treated with varying doses of chemicals diluted with 1% bovine serum albumin/phosphate-buffered saline (BSA/PBS, vol/vol). […] After 24 hr, luciferase activity was measured with the appropriate reagent using a Luciferase Assay System (Promega, Madison, WI, USA) according to the manufacturer’s instructions. […] Cells treated with 1% BSA/PBS were used as a vehicle control. Each assay was performed in triplicate and repeated at least three times.

[3] = target: T3, GST-ER-α –LBD (Homo sapiens, UniProt P03372); assay: Competitive binding assay using [3H]E2; settings: for binding to ER-α (in words): [3H]E2 tracer; for ERR-γ receptor selectivity ER-α (IC50, nM)/ERR-γ (IC50, nM): ratio of IC50 values, ER-α over ERR-γ; for IC50: read-out: Binding affinity for ER-α (IC50)
T3 sequence (P03372 311-547 limits assumed): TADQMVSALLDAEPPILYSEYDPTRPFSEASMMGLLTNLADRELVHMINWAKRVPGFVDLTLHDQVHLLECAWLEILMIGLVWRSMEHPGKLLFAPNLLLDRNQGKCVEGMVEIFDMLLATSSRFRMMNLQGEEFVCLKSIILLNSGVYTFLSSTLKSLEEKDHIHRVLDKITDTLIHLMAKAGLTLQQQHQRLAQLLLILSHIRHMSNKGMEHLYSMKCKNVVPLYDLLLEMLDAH

[4] = read-out: Binding affinity for ERR-γ (IC50)

SMILES	IC50 [1, 4] [nM]	binding to ER-α (in words) [3]	ERR-γ receptor selectivity ER-α (IC50, nM)/ERR-γ (IC50, nM) [3]	further results
CCc1ccc(O)cc1 [4-Ethylphenol, 4-ethylphenol]	289 ± 45.9	–	–	–
CC(C)c1ccc(O)cc1 [4-Isopropylphenol, 4-isopropylphenol]	–	–	–	IC50 [1]: 71.1 ± 7.73 nM
CC/C(=C(\c1ccc(O)cc1)c1ccc(OCCN(C)C)cc1)c1ccccc1 [4-OHT, 4-hydroxytamoxifen, reference compound]	–	–	–	deactivation of ERR-γ (inverse agonist activity) ([2]; 1.0 μM): approximately 0.4 fold
CCC(C)(C)c1ccc(O)cc1 [4-tert-Amylphenol, 4-tert-amylphenol]	33.2 ± 2.85	almost completely inactive	Exclusively ERR-γ	–
CC(C)(C)c1ccc(O)cc1 [4-tert-Butylphenol, 4-tert-butylphenol]	–	almost completely inactive	–	–
CC(C)(c1ccccc1)c1ccc(O)cc1 [4-α-Cumylphenol, 2-(4-hydroxyphenyl)-2-phenylpropane]	–	–	–	IC50 [3]: 4770 nM
CC(C)(c1ccc(O)cc1)c1ccc(O)cc1 [BPA, 2,2-bis(4-hydroxyphenyl)propane]	–	–	–	IC50 [1]: 9.78 ± 0.87 nM; inhibition of the binding of [3H]BPA [1]: almost completely inhibits; inhibition of the inverse agonist (deactivation) activity of 4-OHT [2]: antagonizes or inhibits the deactivation activity of 4-OHT in a dose-dependent manner; effect on constitutive basal activity of ERR-γ [2]: retained a high constitutive basal activity
Oc1ccc(C(c2ccc(O)cc2)(C(F)(F)F)C(F)(F)F)cc1 [Bisphenol AF, 2,2-bis(4-hydroxyphenyl)hexafluoropropane]	358 ± 30.5	–	–	inhibition of the inverse agonist (deactivation) activity of 4-OHT [2]: inhibited the inverse agonist activity of 4-OHT; effect on constitutive basal activity of ERR-γ [2]: retain a high constitutive basal activity
CC(c1ccccc1)(c1ccc(O)cc1)c1ccc(O)cc1 [Bisphenol AP, 4,4′-(1-phenylethylidene)bisphenol]	123 ± 15.1	–	–	IC50 [3]: 361 ± 22.6 nM; fold weaker binding affinity for ERR-γ than bisphenol E [1]: approximately 15 fold
CCC(C)(c1ccc(O)cc1)c1ccc(O)cc1 [Bisphenol B, 2,2-bis(4-hydroxyphenyl)butane]	26.3 ± 2.65	–	about 9.5	IC50 [3]: 246 ± 29.7 nM
CC(c1ccc(O)cc1)c1ccc(O)cc1 [Bisphenol E, 2,2-bis(4-hydroxyphenyl)ethane]	8.14 ± 0.83	almost completely inactive	Exclusively ERR-γ	inhibition of the inverse agonist (deactivation) activity of 4-OHT [2]: inhibited the inverse agonist activity of 4-OHT; effect on constitutive basal activity of ERR-γ [2]: retain a high constitutive basal activity
Oc1ccc(Cc2ccc(O)cc2)cc1 [Bisphenol F, bis(4-hydroxyphenyl)methane]	131 ± 17.9	almost completely inactive	Exclusively ERR-γ	fold weaker binding affinity for ERR-γ than bisphenol E [1]: approximately 16 fold
